# Measured values published in ChEMBL document CHEMBL3886913, “2,4-diamino-6,7-dihydro-5H-pyrrolo[2,3]pyrimidine derivatives as FAK/Pyk2 inhibitors” (2016).
# Legend:
# Focal adhesion kinase 1 = Focal adhesion kinase 1 (Homo sapiens, UniProt Q05397); test: (§1) Biochemical Assay: To measure inhibitory activity of FAK/PYK2 inhibitors, compounds were first prepare as a 1 mM stock in 100% DMSO and 3-fold serial dilution was performed in a 96-well plate (Corning, 3897) to generate 12 different concentration of 100× stock. A 5 μl of 100× stock of each concentration was added to wells containing 95 μl of 1× reaction buffer (40 mM Tris, pH7.5, […], 1 mM DTT and 1 mM CHAPS) to generate 5× stock. Then 2 μl of 5× stock of each concentration was added to a 384 wells-OptiPlate (PerkinElmer, 6007299). For FAK, 4 μl of 2.5 nM FAK, 1 μl of 8 μg/μl BSA and 1.5 μl of 666 nM ULight-poly Glu, Ala, Tyr (1:1:1) peptide substrate, prepared in above reaction buffer, were added to each well. The reaction was initiated by adding 1.5 μl of 33.3 μM ATP. The reaction was allowed to proceed for 120 min before being quenched with 5 μl of 40 mM EDTA stop buffer prepared in 1×LANCE detection buffer (PerkinElmer, CR97-100). For PYK2, 5 μl of 2 nM PYK2 and 1.5 μl of 666 nM ULight-poly Glu, Ala, Tyr (1:1:1) peptide substrate, prepared in above reaction buffer, were added to each well. The reaction was initiated by adding 1.5 μl of 46.6 μM ATP. The reaction was allowed to proceed for 40 min before being quenched with 5 μl of 40 mM EDTA stop buffer prepared in 1×LANCE detection buffer (PerkinElmer, CR97-100). Upon quenching of the reaction, 5 μl of 8 nM anti-phosphotyrosine antibody was added to each well and incubated for 60 minutes.
# Chain of Focal adhesion kinase 1 (Q05397 whole entry): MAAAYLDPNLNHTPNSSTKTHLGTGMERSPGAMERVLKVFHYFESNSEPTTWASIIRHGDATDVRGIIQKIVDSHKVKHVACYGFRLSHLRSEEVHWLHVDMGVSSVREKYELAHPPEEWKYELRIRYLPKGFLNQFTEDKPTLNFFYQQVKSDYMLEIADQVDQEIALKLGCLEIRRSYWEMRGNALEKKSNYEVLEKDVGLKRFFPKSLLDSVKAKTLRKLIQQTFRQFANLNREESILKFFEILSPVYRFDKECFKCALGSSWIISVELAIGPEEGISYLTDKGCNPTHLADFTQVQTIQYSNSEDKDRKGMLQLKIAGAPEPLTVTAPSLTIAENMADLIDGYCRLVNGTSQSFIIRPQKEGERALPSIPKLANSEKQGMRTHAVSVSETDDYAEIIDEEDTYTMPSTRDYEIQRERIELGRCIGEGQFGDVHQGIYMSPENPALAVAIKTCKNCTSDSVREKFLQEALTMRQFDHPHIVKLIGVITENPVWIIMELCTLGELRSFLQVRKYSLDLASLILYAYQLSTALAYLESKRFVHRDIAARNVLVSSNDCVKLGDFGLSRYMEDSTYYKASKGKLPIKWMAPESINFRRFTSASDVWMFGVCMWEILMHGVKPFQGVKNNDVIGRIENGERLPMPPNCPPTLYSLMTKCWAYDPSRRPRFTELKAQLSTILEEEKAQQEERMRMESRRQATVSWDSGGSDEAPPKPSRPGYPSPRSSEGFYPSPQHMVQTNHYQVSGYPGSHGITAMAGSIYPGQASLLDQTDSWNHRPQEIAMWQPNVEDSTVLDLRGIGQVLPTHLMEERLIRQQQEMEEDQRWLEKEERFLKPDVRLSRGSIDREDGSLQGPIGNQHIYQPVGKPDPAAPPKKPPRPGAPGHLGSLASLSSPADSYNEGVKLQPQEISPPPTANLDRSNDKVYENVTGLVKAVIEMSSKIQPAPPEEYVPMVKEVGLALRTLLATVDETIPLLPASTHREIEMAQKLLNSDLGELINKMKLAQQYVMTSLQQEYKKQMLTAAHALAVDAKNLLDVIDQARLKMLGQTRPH
# [1] = biological target: Protein-tyrosine kinase 2-beta (Homo sapiens, UniProt Q14289); test: as §1
# Chain of Protein-tyrosine kinase 2-beta (Q14289 whole entry): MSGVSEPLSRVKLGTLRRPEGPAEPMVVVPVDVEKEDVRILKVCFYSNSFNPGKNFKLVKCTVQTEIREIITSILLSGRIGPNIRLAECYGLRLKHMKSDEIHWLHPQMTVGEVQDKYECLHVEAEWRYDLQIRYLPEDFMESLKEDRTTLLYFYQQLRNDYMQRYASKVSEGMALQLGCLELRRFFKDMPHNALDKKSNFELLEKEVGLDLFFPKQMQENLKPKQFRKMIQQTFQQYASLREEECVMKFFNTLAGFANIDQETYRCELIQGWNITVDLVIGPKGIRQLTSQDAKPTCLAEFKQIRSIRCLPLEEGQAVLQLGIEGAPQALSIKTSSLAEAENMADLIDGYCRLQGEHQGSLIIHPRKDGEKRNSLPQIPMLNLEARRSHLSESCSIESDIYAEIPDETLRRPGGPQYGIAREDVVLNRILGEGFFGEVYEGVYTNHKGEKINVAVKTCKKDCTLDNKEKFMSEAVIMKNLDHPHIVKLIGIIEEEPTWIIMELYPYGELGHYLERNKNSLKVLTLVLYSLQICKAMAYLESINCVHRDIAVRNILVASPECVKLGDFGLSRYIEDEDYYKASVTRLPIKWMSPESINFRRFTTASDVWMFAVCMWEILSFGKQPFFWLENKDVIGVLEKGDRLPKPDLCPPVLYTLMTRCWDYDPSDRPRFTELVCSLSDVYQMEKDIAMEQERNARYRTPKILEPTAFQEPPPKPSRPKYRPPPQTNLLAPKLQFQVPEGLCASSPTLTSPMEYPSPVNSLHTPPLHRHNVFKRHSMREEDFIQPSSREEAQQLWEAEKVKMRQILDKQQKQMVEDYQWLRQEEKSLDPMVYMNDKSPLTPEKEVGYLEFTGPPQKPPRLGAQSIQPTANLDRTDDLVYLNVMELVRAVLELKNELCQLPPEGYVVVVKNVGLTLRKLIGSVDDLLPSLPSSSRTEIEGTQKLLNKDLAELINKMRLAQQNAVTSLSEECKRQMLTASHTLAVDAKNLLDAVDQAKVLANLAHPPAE
SMILES,IC50 (Focal adhesion kinase 1),IC50 [1]
CCOc1cc(N2CCOCC2)ccc1Nc1nc2c(c(Nc3ccccc3S(=O)(=O)NC(C)C)n1)CCN2,< 50 nM,< 100 nM
COc1cc(N2CCOCC2)ccc1Nc1nc2c(c(Nc3ccc(F)c(F)c3)n1)CCN2,> 1000 nM,< 1000 nM
COc1cc(N2CCCCC2=O)ccc1Nc1nc2c(c(Nc3ccccc3S(=O)(=O)NC(C)C)n1)CCN2,< 20 nM,< 20 nM
CCC(C)NS(=O)(=O)c1ccccc1Nc1nc(Nc2ccc(N3CCOCC3)cc2OC)nc2c1C1(CC1)CN2 (stereo unspecified),< 20 nM,< 20 nM
CC(C)NS(=O)(=O)c1ccccc1Nc1nc(Nc2ccc(C(C)N3CCCCC3)cc2)nc2c1CCN2 (stereo unspecified),< 20 nM,< 20 nM
COc1cc(N2CCOCC2)ccc1Nc1nc2c(c(Nc3ccccc3CCO)n1)CCN2,< 1000 nM,< 1000 nM
COc1cc(N2C(=O)CCc3ccccc32)ccc1Nc1nc2c(c(Nc3ccccc3S(=O)(=O)NC(C)C)n1)CCN2,< 500 nM,< 500 nM
COc1cc(N2CCC(N3CCOCC3)CC2)ccc1Nc1nc2c(c(Nc3ccccc3S(=O)(=O)NC(C)C)n1)CCN2,< 20 nM,< 20 nM
